Experimental data from patent US20100285145A1, “GPR 119 MODULATORS” (PFIZER INC, priority 2009, published 2010).
Where “and” joins values, the source holds several entries; their conditions need not be identical. Equal entries are not always repeated.

What was measured:
human GPR119 [1] = molecular target: T1, human GPR119 (Homo sapiens, UniProt Q8TDV5); test: cAMP HTRF functional assay (hGPR119 HEK-CRE beta-lactamase cells); type: cell-based; parameters: host or cells: HEK293-CRE beta-lactamase; conditions: for Intrinsic Activity (Human cAMP) / Emax: percent of maximal activity relative to standard GPR119 agonist at 10 micromolar; for EC50: HTRF cAMP, 30 min, 400 microM IBMX, each line a separate determination; for Emax: read-out: Intrinsic Activity (Human cAMP)
T1 sequence (Q8TDV5 1-335): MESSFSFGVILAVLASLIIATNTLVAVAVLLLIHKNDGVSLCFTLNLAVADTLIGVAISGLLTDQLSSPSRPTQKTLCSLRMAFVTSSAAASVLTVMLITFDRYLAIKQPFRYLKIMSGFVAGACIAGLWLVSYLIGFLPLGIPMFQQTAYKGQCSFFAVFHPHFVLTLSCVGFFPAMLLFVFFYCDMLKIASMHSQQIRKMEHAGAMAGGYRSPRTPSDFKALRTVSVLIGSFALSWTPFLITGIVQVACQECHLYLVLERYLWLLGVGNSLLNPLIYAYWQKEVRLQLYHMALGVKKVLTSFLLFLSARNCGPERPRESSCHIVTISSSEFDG
In short: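 hGPR119 HEK-CRE cells (5000/well), cultured overnight, then treated 30 min at room temperature with compound plus 400 microM IBMX (0.58% DMSO). cAMP measured by competitive HTRF immunoassay after 60 min lysis/detection, converted to nM via standard curve; EC50 from 4-parameter logistic fit.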

human GPR119 [2] = molecular target: T1, human GPR119; test: β-Arrestin PathHunter assay (U2OS hGPR119 β-arrestin cells); type: cell-based; conditions: for EC50: U2OS hGPR119 β-arrestin cells, 90 min, each line a separate determination, read-out: Human B-arrestin Functional EC50; for Intrinsic Activity (Human B-arrestin) / Emax: percent of maximal activity relative to standard GPR119 agonist at 10 micromolar; for Emax: U2OS, read-out: Intrinsic Activity (Human B-arrestin)
In short: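 Cells carry ProLink-tagged GPR119 and EA-fused β-arrestin; 5000 cells/well were plated overnight in Opti-MEM with 2% charcoal-dextran serum. Compounds were applied for 90 min at 37 °C in HBSS/20 mM HEPES pH 7.0/0.1% BSA (0.5% DMSO), followed by Galacton Star substrate for 60 min at RT and a luminescence read. EC50 came from a 4-parameter logistic fit.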

Structure (SMILES) | Intrinsic Activity (Human cAMP) (human GPR119 [1]) | EC50 (human GPR119 [2]) | EC50 (human GPR119 [1]) | Emax (human GPR119 [1]) | Emax (human GPR119 [2]) | Intrinsic Activity (Human B-arrestin) (human GPR119 [2])
Cc1c(O[C@H]2[C@@H]3COC[C@H]2CN(C(=O)OC2(C)CC2)C3)ncnc1N1CCc2ncccc21 [Example 25, 1-Methylcyclopropyl (9-anti)-9-{[6-(2,3-dihydro-1H-pyrrolo[3,2-b]pyridin-1-yl)-5-methylpyrimidin-4-yl]oxy}-3-oxa-7-azabicyclo[3.3.1]nonane-7-carboxylate] | 52.9% and 68.3% and 67.7% and 74.3% and 62.9% | 14.7 nM and 12.4 nM and 19.3 nM and 40.7 nM and 18.2 nM | – | – | – | 58.7% and 81% and 78.6% and 68.6% and 74.5%
Cc1c(O[C@H]2CCN(C(=O)OC(C)(C)C)C[C@H]2F)ncnc1N1CCc2ncccc21 (racemic) [Example 16, tert-Butyl (3R,4S)-4-{[6-(2,3-dihydro-1H-pyrrolo[3,2-b]pyridin-1-yl)-5-methylpyrimidin-4-yl]oxy}-3-fluoropiperidine-1-carboxylate (racemic)] | 21.8% and 27.7% | 2.78 nM | 6.37 nM and 15 nM and 9.29 nM | 24.8% | 48.6% | –
Cc1c(O[C@H]2CCN(C(=O)OC3(C)CC3)C[C@H]2F)ncnc1N1CCc2ncccc21 [Example 17, 1-Methylcyclopropyl (3R,4S)-4-{[6-(2,3-dihydro-1H-pyrrolo[3,2-b]pyridin-1-yl)-5-methylpyrimidin-4-yl]oxy}-3-fluoropiperidine-1-carboxylate] | 69.6% and 48.7% and 53.8% and 63.9% and 53.1% and 48.5% | 2.13 nM and 5.86 nM and 6.62 nM and 5.05 nM and 4.7 nM | 19 nM and 28.5 nM and 13.7 nM and 14.8 nM and 16.9 nM and 19.4 nM | – | – | 68.9% and 54.3% and 59.2% and 52.8% and 76.9%
CC(C)(C)OC(=O)N1CCC(Oc2cc(N3CCc4cc(S(C)(=O)=O)ccc43)ncn2)C(F)C1 (racemic) [Example 15, tert-Butyl 3-fluoro-4-({6-[5-(methylsulfonyl)-2,3-dihydro-1H-indol-1-yl]pyrimidin-4-yl}oxy)piperidine-1-carboxylate] | 102% and 93.5% | 0.999 nM | 10.3 nM and 12.9 nM and 49.5 nM | 92.5% | 77.1% | –
CC(C)OC(=O)N1CCC(Oc2ncnc(N3CCc4cc(S(C)(=O)=O)ccc43)c2C#N)CC1 [Example 6, Isopropyl 4-({5-cyano-6-[5-(methylsulfonyl)-2,3-dihydro-1H-indol-1-yl]pyrimidin-4-yl}oxy)piperidine-1-carboxylate] | 94.2% | 4.76 nM | 84.5 nM and 116 nM | 95.3% | 70% | –

Second part, led by results:

Intrinsic Activity (Human cAMP) (human GPR119 [1]) | EC50 (human GPR119 [2]) | EC50 (human GPR119 [1]) | Emax (human GPR119 [1]) | Emax (human GPR119 [2]) | Structure (SMILES) | Intrinsic Activity (Human B-arrestin) (human GPR119 [2])
– | > 10000 nM | > 10000 nM | – | – | Cc1c(O[C@@H]2[C@@H]3COC[C@H]2CN(C(=O)OC(C)C)C3)ncnc1N1CCc2ncccc21 [Example 29, Isopropyl (9-syn)-9-{[6-(2,3-dihydro-1H-pyrrolo[3,2-b]pyridin-1-yl)-5-methylpyrimidin-4-yl]oxy}-3-oxa-7-azabicyclo[3.3.1]nonane-7-carboxylate] | –
65.1% and 67.6% and 43.6% and 50% | 23.8 nM and 18.2 nM and 21.3 nM and 26.3 nM | 96.9 nM and 112 nM and 91.1 nM and 163 nM | – | 68.6% | CCC1(OC(=O)N2C[C@H]3COC[C@@H](C2)[C@H]3Oc2ncnc(N3CCc4ncccc43)c2C)CC1 [Example 26, 1-Ethylcyclopropyl (9-anti)-9-{[6-(2,3-dihydro-1H-pyrrolo-[3,2-b]pyridin-1-yl)-5-methylpyrimidin-4-yl]oxy}-3-oxa-7-azabicyclo[3.3.1]nonane-7-carboxylate] | 82.5% and 68.9% and 73.4%
